Data reported in PubChem BioAssay (NCI).
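GI50 marks 50% less growth. TGI: total growth inhibition.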

What was measured:
Experiment in all cases: NCI anticancer screen, dose series, 384-well format
HCC-2998 colon = system: HCC-2998 colon
MDA-MB-231 breast = system: MDA-MB-231 breast
OVCAR-4 ovarian = system: OVCAR-4 ovarian
786-0 renal = system: 786-0 renal
SF-295 CNS = system: SF-295 CNS
K-562 leukemia = system: K-562 leukemia
IGROV1 ovarian = system: IGROV1 ovarian
HCT-116 colon = system: HCT-116 colon
RXF 393 renal = system: RXF 393 renal
DU-145 prostate = system: DU-145 prostate
BT-549 breast = system: BT-549 breast
SNB-19 CNS = system: SNB-19 CNS
ACHN renal = system: ACHN renal
NCI-H226 lung = system: NCI-H226 lung
M14 melanoma = system: M14 melanoma
SNB-75 CNS = system: SNB-75 CNS
SW-620 colon = system: SW-620 colon
TK-10 renal = system: TK-10 renal
MDA-MB-468 breast = system: MDA-MB-468 breast
LOX IMVI melanoma = system: LOX IMVI melanoma
COLO 205 colon = system: COLO 205 colon
NCI-H23 lung = system: NCI-H23 lung
MCF7 breast = system: MCF7 breast
SK-OV-3 ovarian = system: SK-OV-3 ovarian
NCI-H460 NSCLC = system: NCI-H460 NSCLC
KM12 colon = system: KM12 colon
UACC-257 melanoma = system: UACC-257 melanoma
SN12C renal = system: SN12C renal
CAKI-1 renal = system: CAKI-1 renal

COc1cc(N2CCC(N)CC2)ccc1Nc1ncc(Cl)c(-c2c[nH]c3ccccc23)n1
GI50 (HCC-2998 colon): 349 nM
TGI (HCC-2998 colon): 1680 nM
GI50 (MDA-MB-231 breast): 1080 nM
TGI (MDA-MB-231 breast): 2300 nM
GI50 (OVCAR-4 ovarian): 1210 nM
TGI (OVCAR-4 ovarian): 2480 nM
GI50 ([…]-0 renal): 1010 nM
TGI (786-0 renal): 2190 nM
GI50 (SF-295 CNS): 1450 nM
TGI (SF-295 CNS): 2770 nM
GI50 (K-562 leukemia): 876 nM
TGI (K-562 leukemia): 2130 nM
GI50 (IGROV1 ovarian): 284 nM
TGI (IGROV1 ovarian): 1000 nM
GI50 (HCT-116 colon): 361 nM
TGI (HCT-116 colon): 1580 nM
GI50 (RXF 393 renal): 739 nM
TGI (RXF 393 renal): 2050 nM
GI50 (DU-145 prostate): 389 nM
TGI (DU-145 prostate): 1710 nM
GI50 (BT-549 breast): 1140 nM
TGI (BT-549 breast): 2360 nM
GI50 (SNB-19 CNS): 1570 nM
TGI (SNB-19 CNS): 2940 nM
GI50 (ACHN renal): 535 nM
TGI (ACHN renal): 1860 nM
GI50 (NCI-H226 lung): 112 nM
TGI (NCI-H226 lung): 663 nM
GI50 (M14 melanoma): 388 nM
TGI (M14 melanoma): 1620 nM
GI50 (SNB-75 CNS): 322 nM
TGI (SNB-75 CNS): 1440 nM
GI50 (SW-620 colon): 254 nM
TGI (SW-620 colon): 1330 nM
GI50 (TK-10 renal): 988 nM
TGI (TK-10 renal): 2180 nM
GI50 (MDA-MB-468 breast): 667 nM
TGI (MDA-MB-468 breast): 1930 nM
GI50 (LOX IMVI melanoma): 541 nM
TGI (LOX IMVI melanoma): 1860 nM
GI50 (COLO 205 colon): 44.1 nM
TGI (COLO 205 colon): 1070 nM
GI50 (NCI-H23 lung): 318 nM
TGI (NCI-H23 lung): 1760 nM
GI50 (MCF7 breast): 59.5 nM
TGI (MCF7 breast): 1220 nM
GI50 (SK-OV-3 ovarian): 334 nM
TGI (SK-OV-3 ovarian): 1440 nM
GI50 (NCI-H460 NSCLC): 184 nM
TGI (NCI-H460 NSCLC): 1390 nM
GI50 (KM12 colon): 209 nM
TGI (KM12 colon): 679 nM
GI50 (UACC-257 melanoma): 789 nM
TGI (UACC-257 melanoma): 2100 nM
GI50 (SN12C renal): 513 nM
TGI (SN12C renal): 1860 nM
GI50 (CAKI-1 renal): 252 nM
